Target: T1, protein:geranylgeranyl transferase-1 (PGGT-1) (Bos taurus, UniProt Q5EAD5)
T1 construct: A crude PGGT-1 preparation was isolated from bovine brain; from tissue; host or cells: bovine brain
Experiment: Protein:geranylgeranyl transferase-1 (PGGT-1) activity assay, [3H]-GGPP and sepharose-coupled peptide pepCsep
Assay type: biochemical
Conditions: PGGT activity in % of control (without analogue), bovine brain enzyme, Table I
Method: PFT activity was determined using a C-terminal peptide of pre-p21^N-ras coupled to sepharose beads as substrate (pepAsep) as described previously (Cohen et al. Biochem. Pharmacol. 57 (1999), 365-373). The experimental conditions (25 μL reaction mixture) were as follows: 80 pmol/25 μL sepharose-coupled peptide, 0.7 μM of [^3H]-FPP (American Radiolabeled Chemicals Inc.; specific radioactivity 15 Ci/mmol) and 13 μL of rat brain enzyme preparation. Incubation was performed at 37° C. for 30 min. For the determination of IC50 values of the FPP analogues, the assay was performed three times in the presence of different concentrations of compound 5 (example 1) in duplicate. Determination of PGGT-1 activity was performed in a similar manner as described for PFT activity and has also been described previously (Cohen et al. Biochem. Pharmacol. 57 (1999), 365-373). […] The experimental conditions were as follows: 25 μL incubation mixture contained 2.5 μL (1 nmol) pepCsep, 1 μM [^3H]-GGPP (American Radiolabeled Chemicals Inc.; specific radioactivity 15 Ci/mmol), 3 μL of bovine brain enzyme preparation, 50 μM ZnCl2, 0.5 mM MgCl2, 1 mM dithiothreitol, 0.004% Triton X-100, 50 mM Tris-HCl (pH 7.4). […]
The radioactivity bound to the sepharose was strongly dependent on the presence of the cysteine residue in pepCsep and the reaction was linear up to 40 min and up to 5 μL of the enzyme preparation. […]

- relative activity at 10 μM (compound at 10 μM): 36 ± 9%
- relative activity at 100 μM (compound at 100 μM): 28 ± 5%
Substance: [Bis(benzyloxycarbonyl)lysyl]-[ε-aminocaproyl]-[β-(nitrophenylaminocarbonyl)-β-alanyl]-[phosphoserine] [compound 378]
